Experimental data reported in patent US20190240210A1, “Treatment Method by Combined Use of MDM2 Inhibitor and DNA Methyltransferase Inhibitor” (DAIICHI SANKYO COMPANY, LIMITED, priority 2016, published 2019).

How the values were obtained:
[1] = system: human acute myeloid leukemia cell line MOLM-13; assay: In vivo effect of combined use of Compound A and azacitidine on subcutaneous MOLM-13 tumors in NOD-SCID mice (Test Example 1); conditions: for TGI (%): 17 days after tumor inoculation
Protocol: (§1) Human acute myeloid leukemia cell line MOLM-13 cells were suspended to 5×10^7 cells/mL using phosphate-buffered saline. 0.1 mL of the prepared cell suspension was subcutaneously transplanted to each NOD-SCID mouse (male, 6 weeks old). […] The major axis (mm) and minor axis (mm) of tumor were measured over time using an electronic digital caliper. […] In addition, the results of the last body weight measurement were used in dose calculation. […] A: Average tumor volume of the compound-administered group on the date of assessment (*) B: Average tumor volume of the untreated control group on the date of assessment (*) *: The tumor volume was calculated according to ½×[Major axis of tumor]×[Minor axis of tumor]×[Minor axis of tumor].

[2] = Body weight change of MOLM-13 tumor-bearing NOD-SCID mice, Compound A and azacitidine (Test Example 1); type: in vivo, mouse
Protocol: (§2) Human acute myeloid leukemia cell line MOLM-13 cells were suspended to 5×10^7 cells/mL using phosphate-buffered saline. 0.1 mL of the prepared cell suspension was subcutaneously transplanted to each NOD-SCID mouse (male, 6 weeks old). On 6 days after the tumor inoculation, after confirmation that the average tumor volume exceeded 100 mm^3, the mice were grouped on the basis of their tumor volume values. 25 mg/kg or 50 mg/kg Compound A was orally administered by forced administration to the mice. 2.5 mg/kg or 4 mg/kg azacitidine was intravenously administered to the tails of the mice. For a combined use group, 25 mg/kg or 50 mg/kg Compound A and 2.5 mg/kg or 4 mg/kg azacitidine were administered sequentially. The administration of Compound A was performed once a day for 5 consecutive days (6 to 10 days after the tumor inoculation) from the date of grouping (6 days after the tumor inoculation), and after a 2-day drug holiday, performed once a day for 4 consecutive days (13 to 16 days after the tumor inoculation). The administration of azacitidine was performed once a day for 5 consecutive days (6 to 10 days after the tumor inoculation) from the date of grouping (6 days after the tumor inoculation). The major axis (mm) and minor axis (mm) of tumor were measured over time using an electronic digital caliper. Tumor growth inhibition % (TGI %) on the date of assessment (17 days after the tumor inoculation) calculated according to calculation formula (4) shown below was used in evaluation. Also, the body weights were measured over time using an automatic balance for small animals, and body weight change % was calculated according to calculation formula (5) shown below to study the influence of drug administration on the body weights. In addition, the results of the last body weight measurement were used in dose calculation.
(§3) Body weight change (%)=Average body weight change % of the individuals (5)
(§4) Body weight change % of each individual=[…]
(§5) BWn: Body weight on day n
(§6) BWs: Body weight on the start day of administration

[3] = system: human acute myeloid leukemia cell line MOLM-13; assay: In vivo effect of combined use of Compound A and decitabine on subcutaneous MOLM-13 tumors in NOD-SCID mice (Test Example 2); conditions: for TGI (%): 17 days after tumor inoculation
Protocol: as §1, with “old). […] For a combined use group, 25 mg/kg or 50 mg/kg Compound A and 1 mg/kg or 50 mg/kg decitabine were administered sequentially.” for “old).”

[4] = Body weight change of MOLM-13 tumor-bearing NOD-SCID mice, Compound A and decitabine (Test Example 2); type: in vivo, mouse
Protocol: as §2, with “the mice. 1 mg/kg or” for “the mice. 2.5 mg/kg or”, “mg/kg or 50 mg/kg decitabine” for “mg/kg or 4 mg/kg azacitidine”, “50 mg/kg decitabine was intravenously” for “4 mg/kg azacitidine was intravenously”, “A and 1 mg/kg or” for “A and 2.5 mg/kg or”, “50 mg/kg decitabine were administered” for “4 mg/kg azacitidine were administered”, “administration of decitabine to the 50 mg/kg group was performed at the date of grouping (6 days after the tumor inoculation), and the administration thereof to the 1 mg/kg group was performed” for “administration of azacitidine was performed”
as §3, §4, §5, §6

[5] = Compound A 25 mg/kg oral, day 6 after tumor inoculation
[6] = Compound A 25 mg/kg oral, day 8 after tumor inoculation
[7] = Compound A 25 mg/kg oral, day 10 after tumor inoculation
[8] = Compound A 25 mg/kg oral, day 13 after tumor inoculation
[9] = Compound A 25 mg/kg oral, day 15 after tumor inoculation
[10] = Compound A 25 mg/kg oral, day 17 after tumor inoculation
[11] = Compound A 50 mg/kg oral, day 6 after tumor inoculation
[12] = Compound A 50 mg/kg oral, day 8 after tumor inoculation
[13] = Compound A 50 mg/kg oral, day 10 after tumor inoculation
[14] = Compound A 50 mg/kg oral, day 13 after tumor inoculation
[15] = Compound A 50 mg/kg oral, day 15 after tumor inoculation
[16] = Compound A 50 mg/kg oral, day 17 after tumor inoculation

In the case of CC1(C)CCC2(CC1)N[C@@H](C(=O)N[C@@H]1CC[C@@H](C(N)=O)OC1)[C@H](c1ccnc(Cl)c1F)[C@]21C(=O)Nc2cc(Cl)ccc21.Cc1ccc(S(=O)(=O)O)cc1 [Compound A, (3′R,4′S,5′R)—N-[(3R,6S)-6-carbamoyltetrahydro-2H-pyran-3-yl]-6″-chloro-4′-(2-chloro-3-fluoropyridin-4-yl)-4,4-dimethyl-2″-oxo-1″,2″-dihydrodispiro[cyclohexane-1,2′-pyrrolidine-3′,3″-indole]-5′-carboxamide p-toluenesulfonate], the “TGI (%)” value ([1]; Compound A 25 mg/kg oral) is reported as 34%, the “Estimated tumor volume, average” value [1, 5] is reported as 118 mm^3 and the “Estimated tumor volume, average” value [1, 6] is reported as 269 mm^3. For the same molecule, the “Estimated tumor volume, average” value [1, 7] was 418 mm^3, the “Estimated tumor volume, average” value [1, 8] was 834 mm^3 and the “Estimated tumor volume, average” value [1, 9] was 1346 mm^3. For the same molecule, the “Estimated tumor volume, average” value [1, 10] was 1697 mm^3, the “TGI (%)” value ([1]; Compound A 50 mg/kg oral) was 72% and the “Estimated tumor volume, average” value [1, 11] was 116 mm^3. The “Estimated tumor volume, average” value [1, 12] was 180 mm^3, the “Estimated tumor volume, average” value [1, 13] was 197 mm^3 and the “Estimated tumor volume, average” value [1, 14] was 364 mm^3. The “Estimated tumor volume, average” value [1, 15] was 545 mm^3, the “Estimated tumor volume, average” value [1, 16] was 721 mm^3 and the “Body weight change (%), average” value [2, 5] was 0.0%. The “Body weight change (%), average” value [2, 6] was 2.5%, the “Body weight change (%), average” value [2, 7] was 3.7% and the “Body weight change (%), average” value [2, 8] was 9.0%. The “Body weight change (%), average” value [2, 9] was 10.8%, the “Body weight change (%), average” value [2, 10] was 13.8% and the “Body weight change (%), average” value [2, 11] was 0.0%. The “Body weight change (%), average” value [2, 12] was 1.7%, the “Body weight change (%), average” value [2, 13] was 4.4% and the “Body weight change (%), average” value [2, 14] was 8.7%. The “Body weight change (%), average” value [2, 15] was 8.9%, the “Body weight change (%), average” value [2, 16] was 10.7% and the “TGI (%)” value ([3]; Compound A 25 mg/kg oral) was 22%. For the same molecule, the “Estimated tumor volume, average” value [3, 5] was 147 mm^3, the “Estimated tumor volume, average” value [3, 6] was 257 mm^3 and the “Estimated tumor volume, average” value [3, 7] was 388 mm^3. For the same molecule, the “Estimated tumor volume, average” value [3, 8] was 876 mm^3, the “Estimated tumor volume, average” value [3, 9] was 1213 mm^3 and the “Estimated tumor volume, average” value [3, 10] was 1825 mm^3. The “TGI (%)” value ([3]; Compound A 50 mg/kg oral) was 76%, the “Estimated tumor volume, average” value [3, 11] was 143 mm^3 and the “Estimated tumor volume, average” value [3, 12] was 227 mm^3. For the same molecule, the “Estimated tumor volume, average” value [3, 13] was 170 mm^3, the “Estimated tumor volume, average” value [3, 14] was 310 mm^3 and the “Estimated tumor volume, average” value [3, 15] was 407 mm^3. The “Estimated tumor volume, average” value [3, 16] was 554 mm^3, the “Body weight change (%), average” value [4, 5] was 0.0% and the “Body weight change (%), average” value [4, 6] was 2.3%. The “Body weight change (%), average” value [4, 7] was 2.0%, the “Body weight change (%), average” value [4, 8] was 8.0% and the “Body weight change (%), average” value [4, 9] was 8.5%. The “Body weight change (%), average” value [4, 10] was 10.3%, the “Body weight change (%), average” value [4, 11] was 0.0% and the “Body weight change (%), average” value [4, 12] was 1.7%. The “Body weight change (%), average” value [4, 13] was 2.4%, the “Body weight change (%), average” value [4, 14] was 7.4% and the “Body weight change (%), average” value [4, 15] was 6.2%. For the same molecule, the “Body weight change (%), average” value [4, 16] was 7.2%.
